The text below walks through data of paper PMC5514948, “Stereochemical preference toward oncotarget: Design, synthesis and in vitro anticancer evaluation of diastereomeric β-lactams” (Oncotarget, 2017).

Series [1] has as its system B16F10 (murine melanoma) cells. Kind of series: Cytotoxic activity, WST-1 assay, B16F10. It counts as cell-based. On the procedure:
(§1) In vitro anticancer assays were performed in triplicate for the determination of mean values. The human cervical carcinoma SiHa, murine melanoma B16F10, chronic myelogenous leukemia (CML) K562, and Chang cell lines were cultured in minimum essential medium of Eagle at 37 °C in a […] atmosphere with 10% fetal bovine serum, 2 mM L-glutamine and 1% penicillin/streptomycin. Cells were trypsinized and seeded at a density of 5 × 10^4 cells/mL in a 96-well plate and incubated at 37 °C, […] atmosphere for 24 h. Thereafter the cells were treated with azetidin-2-one derivatives (dissolved in DMSO) at various concentrations between 312 nM–10 μM, and re-incubated for further 72 h. Wells containing the equal volume of the vehicle DMSO (1% v/v) were used as background (negative control). The culture medium was then removed and the cells washed with 100 μL phosphate buffered saline (PBS); then 10 μL WST-1 (Roche, USA) was added. Cells were incubated for 2 h in absence of light at 37°C, and absorbance was read subsequently. […] Afterwards, these values were used to assess half maximal inhibitory concentration (IC50) using Graph-Pad Prism software.
(In general: Formazan colour is commonly taken as a measure of viable cells.)

The test system of series [2] is Chang (normal liver) cells. Kind of series: cells. In kind it is cell-based. The note with it: 72 h, WST-1, triplicate. Here is the method: as §1
For series [3], the system named is SiHa (human cervical carcinoma) cells. Kind of series: Cytotoxic activity, WST-1 assay, SiHa. In kind it is cell-based. Here is the method: as §1
Series [4] concerns K562 (human immortalized myelogenous leukemia) cells. Nature of the series: Cytotoxic activity, WST-1 assay, K562. It counts as cell-based. Here is the method: as §1
A further series has as its system Chang cells. Kind of series: Hematoxylin/Eosin staining of Chang cells. It counts as cell-based. The note with it: 24 h, 6C 1 μM, taxol. On the procedure: (§2) The cytotoxic effect of the compound 6C in SiHa and Chang cells has been studied (Figure 2).
(§3) Cells (10 × 10^4) were grown on coated poly-lysine coverslips which were placed in 6-well microplates overnight and then incubated for 24 h in the presence of compound 6C or taxol, subsequently stained with hematoxylin and eosin. Coverslips were then observed by Light microscopy of bright field (40X).

Series [5] deals with caspase-3 activation in B16F10 cells. Nature of the series: Apoptotic activity, caspase-3 assay. The note with it: 24 h, podophyllotoxin as positive control. In kind it is cell-based, murine. On the procedure:
The mechanism of cell death was identified as apoptosis. It was validated with the compound 6C. Enzyme activity associated with the induction of apoptosis was determined by caspase-3 assay (Invitrogen, USA) as described in the protocol. A concentration of approximately 3 × 10^6 cells/mL (B16F10) was taken and incubated for 24 h at 37 °C in 5% CO2 environment. Podophyllotoxin (apoptosis inducing agent) was used as positive control. After incubation for 24 h the cells were re-suspended and 50 μL of cell lysis reagent was added, then cells were incubated for 10 min in ice bath and centrifuged. The supernatant (cytosol extract) was transferred into a new effendrof. Cytosol extract was diluted with cell lysis reagent to a concentration of 2 μg/μL, in a total volume of 50 μL. Then 50 μL of 2X reaction buffer and 5 μL of tetrapeptide-p-nitroaniline (DEVD-pNA) were added. It was incubated at 37 °C for 2 h (in dark), and finally the optical density at 405 nm was measured with an ELISA Reader. Caspase-3 activity was calculated that confirmed apoptosis as the mechanism of cell death.

The subject of a further series is SiHa cells. Kind of series: Hematoxylin/Eosin staining of SiHa cells. In kind it is cell-based, human. The note with it: 24 h, 6C 1 μM, taxol. Here is the method:
as §2, §3

“And” between values parts separate entries of the source, which are not always exact repeats. Identical values can stand only once. Bounds are passed on as bounds.

On to `COc1ccc([C@@H]2[C@H](N)C(=O)N2c2ccc(OC)cc2)cc1` (racemic) [1C, (±)-Cis-3-amino-1,4-bis(4-methoxyphenyl) azetidin-2-one], for which the IC50 in series [1] (72 h, WST-1, triplicate) was 3.33 ± 0.3 µM; in series [2], 6.21 ± 0.5 µM; in series [3] (72 h, WST-1, triplicate) it was 4.21 ± 0.4 µM; in series [4] (72 h, WST-1, triplicate) it was > 10 µM.
On to `COc1ccc([C@H]2[C@H](N)C(=O)N2c2ccc(OC)cc2)cc1` (racemic) [1T, (±)-Trans-3-amino-1,4-bis(4-methoxyphenyl) azetidin-2-one], for which the half-maximal inhibitory concentration (IC50) is 5.16 ± 0.5 µM in series [1] (72 h, WST-1, triplicate); 7.91 ± 0.4 µM in series [2]; 7.17 ± 0.3 µM in series [3] (72 h, WST-1, triplicate); > 10 µM in series [4] (72 h, WST-1, triplicate).
As to `COc1ccc([C@@H]2[C@H](N)C(=O)N2c2ccccc2)cc1` (racemic) [2C, (±)-Cis-3-amino-4-(4-methoxyphenyl)-1-phenyl-azetidin-2-one], the IC50 in series [2] is 8.03 ± 0.5 µM; in series [3] (72 h, WST-1, triplicate), 6.2 ± 0.6 µM; in series [4] (72 h, WST-1, triplicate) it was > 10 µM.
Regarding `COc1ccc([C@H]2[C@H](N)C(=O)N2c2ccccc2)cc1` (racemic) [2T, (±)-Trans-3-amino-4-(4-methoxyphenyl)-1-phenyl-azetidin-2-one], the IC50 was 7.63 ± 0.4 µM in series [1] (72 h, WST-1, triplicate); > 10 µM in series [2]; 7.14 ± 0.5 µM in series [3] (72 h, WST-1, triplicate); > 10 µM in series [4] (72 h, WST-1, triplicate).
As to `COc1ccc(N2C(=O)[C@@H](N)[C@H]2c2ccc(OC)c(OC)c2)cc1` (racemic) [3C, (±)-Cis-3-amino-4-(3,4-dimethoxyphenyl)-1-(4-methoxyphenyl) azetidin-2-one], the IC50 was < 5 µM and 3.91 µM in series [1] (72 h, WST-1, triplicate); 9.32 ± 0.6 µM in series [2]; 5.1 ± 0.4 µM in series [3] (72 h, WST-1, triplicate); 6.14 ± 0.4 µM in series [4] (72 h, WST-1, triplicate).
In the case of `COc1ccc(N2C(=O)[C@@H](N)[C@@H]2c2ccc(OC)c(OC)c2)cc1` (racemic) [3T, (±)-Trans-3-amino-4-(3,4-dimethoxyphenyl)-1-(4-methoxyphenyl) azetidin-2-one], the IC50 in series [1] (72 h, WST-1, triplicate) was > 10 µM; in series [2] it was > 10 µM; in series [3] (72 h, WST-1, triplicate) it was > 10 µM; in series [4] (72 h, WST-1, triplicate), > 10 µM.
Consider `COc1ccc(N2C(=O)[C@@H](N)[C@H]2c2ccccc2[N+](=O)[O-])cc1` (racemic) [4C, (±)-Cis-3-amino-1-(4-methoxyphenyl)-4-(2-nitrophenyl) azetidin-2-one], for which the IC50 in series [1] (72 h, WST-1, triplicate) is 5.91 ± 0.6 µM; in series [2], 7.37 ± 0.4 µM; in series [3] (72 h, WST-1, triplicate), 7.28 ± 0.5 µM; in series [4] (72 h, WST-1, triplicate) it was > 10 µM.
Regarding `COc1ccc(N2C(=O)[C@@H](N)[C@@H]2c2ccccc2[N+](=O)[O-])cc1` (racemic) [4T, (±)-Trans-3-amino-1-(4-methoxyphenyl)-4-(2-nitrophenyl) azetidin-2-one], the IC50 was > 10 µM in series [1] (72 h, WST-1, triplicate); > 10 µM in series [2]; 8.12 ± 0.4 µM in series [3] (72 h, WST-1, triplicate); > 10 µM in series [4] (72 h, WST-1, triplicate).
In the case of `COc1ccc(N2C(=O)[C@@H](N)[C@H]2c2ccc(C)cc2)cc1` (racemic) [5C, (±)-Cis-3-amino-1-(4-methoxyphenyl)-4-(p-tolyl) azetidin-2-one], the IC50 is 7.01 ± 0.1 µM in series [2]; 4.03 ± 0.5 µM in series [3] (72 h, WST-1, triplicate); > 10 µM in series [4] (72 h, WST-1, triplicate).
For the compound `COc1ccc(N2C(=O)[C@@H](N)[C@@H]2c2ccc(C)cc2)cc1` (racemic) [5T, (±)-Trans-3-amino-1-(4-methoxyphenyl)-4-(p-tolyl)azetidin-2-one], the IC50 is 7.14 ± 0.6 µM in series [1] (72 h, WST-1, triplicate); > 10 µM in series [2]; 7.79 ± 0.5 µM in series [3] (72 h, WST-1, triplicate); > 10 µM in series [4] (72 h, WST-1, triplicate).
As to `Cc1ccc([C@@H]2[C@H](N)C(=O)N2c2ccccc2)cc1` (racemic) [6C, (±)-Cis-3-amino-1-phenyl-4-(p-tolyl) azetidin-2-one], the IC50 was 0.7 ± 0.1 µM in series [1] (72 h, WST-1, triplicate); 6.89 ± 0.3 µM in series [2]; 2.34 ± 0.2 µM in series [3] (72 h, WST-1, triplicate); > 10 µM in series [4] (72 h, WST-1, triplicate). Further, the “times higher potency than colchicine” value in series [1] (B16F10 cell lines, compared to colchicine) is “six”. Further, the “Morphological effect, Hematoxylin/Eosin staining” value in the series with Chang cells is “appearance of multiple intracytoplasmic vacuoles”; with SiHa cells, “loss of cytoplasm and decrease in the size of nuclei”. In addition, the “Apoptosis through caspase-3 activation” value in series [5] was “demonstrated apoptosis in B16F10 cancer cells through caspase-3 activation”.
For the compound `Cc1ccc([C@H]2[C@H](N)C(=O)N2c2ccccc2)cc1` (racemic) [6T, (±)-Trans-3-amino-1-phenyl-4-(p-tolyl)azetidin-2-one], the IC50 in series [1] (72 h, WST-1, triplicate) is 5.79 ± 0.4 µM; in series [2] it was > 10 µM; in series [3] (72 h, WST-1, triplicate) it was 4.79 ± 0.6 µM; in series [4] (72 h, WST-1, triplicate), > 10 µM.
Turning to `COc1ccc(N2C(=O)[C@@H](N)[C@H]2c2ccccn2)cc1` (racemic) [7C, (±)-Cis-3-amino-1-(4-methoxyphenyl)-4-(2-pyridyl)azetidin-2-one], the IC50 is > 10 µM in series [1] (72 h, WST-1, triplicate); 5.49 ± 0.4 µM in series [2]; 8.43 ± 0.3 µM in series [3] (72 h, WST-1, triplicate); 6.86 ± 0.4 µM in series [4] (72 h, WST-1, triplicate).
`COc1ccc(N2C(=O)[C@@H](N)[C@@H]2c2ccccn2)cc1` (racemic) [7T, (±)-Trans-3-amino-1-(4-methoxyphenyl)-4-(2-pyridyl)azetidin-2-one]: the IC50 was > 10 µM in series [1] (72 h, WST-1, triplicate); > 10 µM in series [2]; > 10 µM in series [3] (72 h, WST-1, triplicate); > 10 µM in series [4] (72 h, WST-1, triplicate).
For the compound `CC(=O)O[C@H]1C(=O)[C@@]2(C)[C@H]([C@H](OC(=O)c3ccccc3)[C@]3(O)C[C@H](OC(=O)[C@H](O)[C@@H](NC(=O)c4ccccc4)c4ccccc4)C(C)=C1C3(C)C)[C@]1(OC(C)=O)CO[C@@H]1C[C@@H]2O` [Paclitaxel, reference compound], the IC50 in series [1] (Mus musculus, B16-F10, 72 h, WST-1, triplicate) is 9.57 ± 0.2 µM; in series [2], 0.068 ± 0.02 µM; in series [3] (Homo sapiens, SiHa, value marked * (ng/mL)) it was 0.364 ± 0.31 µg/mL; in series [4] (Homo sapiens, K562, value marked * (ng/mL)) it was 4.8 ± 0.4 ng/mL. Moreover, the “Morphological effect, Hematoxylin/Eosin staining” value is reported as “early apoptosis” with Chang cells and “induced severe cell damage” with SiHa cells.
For the compound `CC[C@]1(O)C[C@@H]2CN(CCc3c([nH]c4ccccc34)[C@@](C(=O)OC)(c3cc4c(cc3OC)N(C)[C@H]3[C@@](O)(C(=O)OC)[C@H](OC(C)=O)[C@]5(CC)C=CCN6CC[C@]43[C@@H]65)C2)C1` [Vinblastine, reference compound], the IC50 turned out to be 0.055 ± 0.028 µg/mL in series [1] (Mus musculus, B16-F10, value marked * (ng/mL)); 10.9 ± 0.8 µM in series [3] (Homo sapiens, SiHa, 72 h, WST-1, triplicate); 0.006 µM in series [4] (Homo sapiens, K562, 72 h, WST-1, triplicate).

One may read the IC50 as the point on the concentration scale where inhibition reaches its midpoint. Low values mean higher potency, high ones lower potency.
